# Data as given in patent publication US6953800B2, “Use of selective antagonists of the α1B-adrenergic receptor for improvement of sexual dysfunction” (Recordati S.A. Chemical, priority 1999, dated 2005).
# Counter-ions that a name gives are not always drawn.
# How the values were obtained:
# human α1b-adrenoceptor = biological target: T1, human α1b-adrenoceptor (Homo sapiens, UniProt P35368); experiment: [3H]Prazosin binding, cloned human α1b-adrenoceptor in CHO cell membranes
# T1 construct: expressed in transfected cells
# T1 sequence (P35368 1-520): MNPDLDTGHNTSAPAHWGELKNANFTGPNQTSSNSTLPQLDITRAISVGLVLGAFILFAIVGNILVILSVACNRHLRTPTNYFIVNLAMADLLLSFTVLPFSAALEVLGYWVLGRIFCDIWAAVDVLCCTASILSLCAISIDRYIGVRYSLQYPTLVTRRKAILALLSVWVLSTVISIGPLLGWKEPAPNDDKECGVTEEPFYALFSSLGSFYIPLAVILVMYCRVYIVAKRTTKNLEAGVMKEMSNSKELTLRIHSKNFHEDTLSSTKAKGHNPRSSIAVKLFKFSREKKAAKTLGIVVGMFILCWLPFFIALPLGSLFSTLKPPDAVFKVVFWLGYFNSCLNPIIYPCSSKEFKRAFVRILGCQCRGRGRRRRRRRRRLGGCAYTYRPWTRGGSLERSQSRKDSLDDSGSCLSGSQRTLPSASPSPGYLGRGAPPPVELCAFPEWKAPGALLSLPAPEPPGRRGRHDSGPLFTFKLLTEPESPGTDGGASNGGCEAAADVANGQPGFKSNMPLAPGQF
# Description: (§1) Binding to cloned human α1-adrenoceptor subtypes was performed in membranes from CHO cells (Chinese hamster ovary cells) transfected by electroporation with DNA expressing the gene encoding each α1-adrenoceptor subtype. […] The incubation was stopped by addition of ice-cold Tris buffer and rapid filtration through 0.2% polyethyleneimine-pretreated Whatman GF/B or Schleicher & Schuell GF52 filters.
# (§2) Data are expressed as mean Ki. All patents and other references cited herein are incorporated by reference in their entirety.
# human α1d-adrenoceptor = biological target: T2, human α1d-adrenoceptor (Homo sapiens, UniProt P25100); experiment: [3H]Prazosin binding, cloned human α1d-adrenoceptor in CHO cell membranes; details: read-out: Affinity (Ki) α1d, human cloned receptors
# T2 construct: expressed in transfected cells
# T2 sequence (P25100 1-572): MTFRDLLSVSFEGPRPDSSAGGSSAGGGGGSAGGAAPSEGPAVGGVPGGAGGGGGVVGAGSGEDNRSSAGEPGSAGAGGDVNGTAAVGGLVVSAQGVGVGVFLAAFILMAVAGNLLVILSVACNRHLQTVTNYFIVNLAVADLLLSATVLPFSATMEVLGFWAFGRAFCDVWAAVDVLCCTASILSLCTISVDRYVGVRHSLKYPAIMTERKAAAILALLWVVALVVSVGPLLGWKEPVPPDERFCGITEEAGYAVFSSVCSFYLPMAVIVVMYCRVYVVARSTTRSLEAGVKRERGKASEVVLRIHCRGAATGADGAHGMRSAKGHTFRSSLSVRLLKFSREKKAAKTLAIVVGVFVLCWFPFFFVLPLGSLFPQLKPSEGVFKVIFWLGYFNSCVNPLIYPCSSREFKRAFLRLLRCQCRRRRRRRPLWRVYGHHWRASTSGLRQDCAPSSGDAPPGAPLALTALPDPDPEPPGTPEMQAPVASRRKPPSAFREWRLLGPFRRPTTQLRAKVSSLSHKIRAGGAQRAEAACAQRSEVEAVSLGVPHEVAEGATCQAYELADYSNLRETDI
# Description: as §1, §2
# anaesthetised dogs = experiment: Intracavernous and blood pressure recording in dogs
# Description: Male beagle dogs were anaesthetised with pentobarbital sodium (i.v. Nembutal, 35 mg/kg for induction and 4 mg/kg/h for maintenance) and intubated with an endotracheal cuffed tube to facilitate free ventilation. A collateral of the left femoral vein was cannulated with a PE catheter for infusion of the anaesthetic. Systemic BP was monitored via a Mikro-tip 6F (Millar Instruments) pressure transducer introduced into the aortic arch through the right common carotid artery. ICP was measured by means of a 20-gauge needle placed into the left or right corpus cavernosum and the same needle was used for intracavernous injection of the drugs. The needle was attached to a catheter filled with heparinized saline (25 IU/mL). […] The compounds to be tested were injected intracavernously in a volume of 0.5 ml and, after each injection, the needle was flushed with 0.5 ml of saline. The vehicles for compound dissolution were tested before the first dose of each drug. The compounds were administered in a cumulative way, with a 30-minute interval between doses. ICP (mmHg) was measured at the peak effect after the administration of the compounds. The duration of tumescence (DT, min) was measured from the beginning of the rise of ICP over its basal value up to the return to baseline. The systolic blood pressure and diastolic blood pressure (mmHg) were measured at the peak effect after the administration of compounds, in order to evaluate the effects of the compounds on BP independently from the effects on ICP. Moreover, the systolic blood pressure was measured at the time of maximal ICP value after intracavernous injection, to evaluate the ICP/BP ratios. […] The data were reported as mean ±s.e. of the mean, or percent variation (±s.e.) of the basal values.
# human α1a-adrenoceptor = biological target: T3, human α1a-adrenoceptor (Homo sapiens, UniProt P35348); experiment: biochemical
# T3 sequence (P35348 1-466): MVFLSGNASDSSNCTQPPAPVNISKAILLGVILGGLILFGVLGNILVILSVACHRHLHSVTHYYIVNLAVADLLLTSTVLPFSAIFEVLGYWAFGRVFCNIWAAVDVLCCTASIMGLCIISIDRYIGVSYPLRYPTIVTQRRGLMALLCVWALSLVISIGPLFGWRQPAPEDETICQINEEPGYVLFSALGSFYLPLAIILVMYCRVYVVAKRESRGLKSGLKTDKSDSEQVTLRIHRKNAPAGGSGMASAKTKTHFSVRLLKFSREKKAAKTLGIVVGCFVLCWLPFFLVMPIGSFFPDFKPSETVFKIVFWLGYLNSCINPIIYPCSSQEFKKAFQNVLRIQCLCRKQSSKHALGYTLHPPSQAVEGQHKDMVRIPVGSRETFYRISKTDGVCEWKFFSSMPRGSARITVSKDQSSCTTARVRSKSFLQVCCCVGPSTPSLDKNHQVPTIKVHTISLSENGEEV
# hamster α1b-adrenoceptor = biological target: T4, hamster α1b-adrenoceptor (Mesocricetus auratus, UniProt P18841); experiment: [3H]Prazosin binding, hamster α1b-adrenoceptor in COS-7 cell membranes; details: COS-7 membranes, read-out: Affinity (Ki) α1b, animal cloned receptors
# T4 construct: expressed in transfected cells; host or cells: COS-7 cells (transient), membranes
# T4 sequence (P18841 1-515): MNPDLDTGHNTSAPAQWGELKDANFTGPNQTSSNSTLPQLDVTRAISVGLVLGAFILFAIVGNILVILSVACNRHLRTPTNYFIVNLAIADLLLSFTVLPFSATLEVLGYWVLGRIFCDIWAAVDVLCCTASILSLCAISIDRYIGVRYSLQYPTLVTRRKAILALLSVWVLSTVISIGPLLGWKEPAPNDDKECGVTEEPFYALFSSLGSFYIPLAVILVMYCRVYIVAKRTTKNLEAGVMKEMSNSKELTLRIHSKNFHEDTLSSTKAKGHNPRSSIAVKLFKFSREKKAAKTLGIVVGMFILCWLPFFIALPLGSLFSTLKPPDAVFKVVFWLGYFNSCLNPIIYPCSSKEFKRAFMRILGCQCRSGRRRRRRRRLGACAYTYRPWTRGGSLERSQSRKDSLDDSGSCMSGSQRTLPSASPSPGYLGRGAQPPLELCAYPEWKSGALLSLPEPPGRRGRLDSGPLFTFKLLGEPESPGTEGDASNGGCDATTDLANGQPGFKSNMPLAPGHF
# Description: The incubation was stopped by addition of ice-cold Tris buffer and rapid filtration through 0.2% polyethyleneimine pretreated Whatman GF/B or Schleicher & Schuell GF52 filters.
# as §2
smiles,measurement,setting,value
"COc1cc2nc(N3CCN(C(=O)c4ccco4)[C@@H]4CCCC[C@@H]43)nc(N)c2cc1OC [Compound B, 4-Amino-6,7-dimethoxy-2-[(4aR,8aS)-4-(2-furoyl)-cis-octahydro-1-quinoxalinyl]-quinazoline hydrochloride]",Ki,human α1b-adrenoceptor,0.17 nM
same,Ki,human α1d-adrenoceptor,2.63 nM
same,DBP,anaesthetised dogs; 3 μg/kg intracavernous,110.7 ± 5.5 mmHg
same,DT (duration of tumescence),anaesthetised dogs; 3 μg/kg intracavernous,2.5 ± 0.9 min
same,ICP,anaesthetised dogs; 3 μg/kg intracavernous,36.7 ± 2.2 mmHg
same,SBP,anaesthetised dogs; 3 μg/kg intracavernous,151.7 ± 7.3 mmHg
same,SBPICP (SBP at the time of maximal ICP value),anaesthetised dogs; 3 μg/kg intracavernous,153.3 ± 7.0 mmHg
same,increase of ICP in comparison with basal ICP values,anaesthetised dogs; 3 μg/kg intracavernous,13.7 mmHg
same,DBP,anaesthetised dogs; 30 μg/kg intracavernous,107.3 ± 4.2 mmHg
same,DT (duration of tumescence),anaesthetised dogs; 30 μg/kg intracavernous,4.3 ± 2.0 min
same,ICP,anaesthetised dogs; 30 μg/kg intracavernous,49.3 ± 14.2 mmHg
same,SBP,anaesthetised dogs; 30 μg/kg intracavernous,150.0 ± 5.9 mmHg
same,SBPICP (SBP at the time of maximal ICP value),anaesthetised dogs; 30 μg/kg intracavernous,151.0 ± 5.7 mmHg
same,DBP,anaesthetised dogs; 100 μg/kg intracavernous,104.3 ± 4.2 mmHg
same,DT (duration of tumescence),anaesthetised dogs; 100 μg/kg intracavernous,4.4 ± 1.6 min
same,ICP,anaesthetised dogs; 100 μg/kg intracavernous,52.7 ± 13.0 mmHg
same,SBP,anaesthetised dogs; 100 μg/kg intracavernous,146.0 ± 4.8 mmHg
same,SBPICP (SBP at the time of maximal ICP value),anaesthetised dogs; 100 μg/kg intracavernous,147.3 ± 5.0 mmHg
same,DBP,anaesthetised dogs; 300 μg/kg intracavernous,98.0 ± 6.9 mmHg
same,DT (duration of tumescence),anaesthetised dogs; 300 μg/kg intracavernous,3.5 ± 1.1 min
same,ICP,anaesthetised dogs; 300 μg/kg intracavernous,57.3 ± 11.4 mmHg
same,SBP,anaesthetised dogs; 300 μg/kg intracavernous,139.0 ± 6.6 mmHg
same,SBPICP (SBP at the time of maximal ICP value),anaesthetised dogs; 300 μg/kg intracavernous,147.3 ± 5.7 mmHg
same,increase of ICP in comparison with basal ICP values,"anaesthetised dogs; 1000 μg/kg (1000 μg given for prazosin, phentolamine) intracavernous",73.3 mmHg
same,DBP,anaesthetised dogs; 1000 μg/kg intracavernous,81.0 ± 4.3 mmHg
same,ICP,anaesthetised dogs; 1000 μg/kg intracavernous,93.3 ± 6.2 mmHg
same,SBP,anaesthetised dogs; 1000 μg/kg intracavernous,121.7 ± 4.9 mmHg
same,SBPICP (SBP at the time of maximal ICP value),anaesthetised dogs; 1000 μg/kg intracavernous,135.7 ± 6.8 mmHg
same,duration of action compared with reference compounds,anaesthetised dogs; Compound B at the highest dose tested,higher than that of the reference compounds tested
same,hypotension on diastolic blood pressure (change),anaesthetised dogs; highest dose 1000 μg/kg,−31 mmHg
same,effect on ICP (in words),anaesthetised dogs; intracavernous injection,increased ICP in a dose-dependent way
same,Ki,human α1a-adrenoceptor,9.43 nM
same,Ki,hamster α1b-adrenoceptor,0.68 nM
